According to patent US20240158446A1, “CYCLIC COMPOUND HAVING SELECTIVE INHIBITORY ACTION ON KRAS OVER HRAS AND NRAS” (CHUGAI SEIYAKU KABUSHIKI KAISHA, priority 2021, published 2024):

Tests used:
[1] = target: GDP-bound HRAS wild-type protein (Homo sapiens, UniProt P01112); experiment: Binding to HRAS by surface plasmon resonance (SPR), Single Cycle Kinetics; details: SPR KD ratio HRAS/KRAS, class symbols
[2] = target: GDP-bound NRAS wild-type protein (Homo sapiens, UniProt P01111); experiment: Binding to NRAS by surface plasmon resonance (SPR), Single Cycle Kinetics; details: SPR KD ratio NRAS/KRAS, class symbols
Chain of GDP-bound NRAS wild-type protein (P01111 whole entry): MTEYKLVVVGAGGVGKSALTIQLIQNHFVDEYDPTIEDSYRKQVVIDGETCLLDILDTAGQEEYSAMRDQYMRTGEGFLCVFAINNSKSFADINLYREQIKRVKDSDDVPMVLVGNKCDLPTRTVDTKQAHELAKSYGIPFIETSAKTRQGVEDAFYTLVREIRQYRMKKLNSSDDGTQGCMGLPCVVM

Chain of GDP-bound HRAS wild-type protein (P01112 whole entry): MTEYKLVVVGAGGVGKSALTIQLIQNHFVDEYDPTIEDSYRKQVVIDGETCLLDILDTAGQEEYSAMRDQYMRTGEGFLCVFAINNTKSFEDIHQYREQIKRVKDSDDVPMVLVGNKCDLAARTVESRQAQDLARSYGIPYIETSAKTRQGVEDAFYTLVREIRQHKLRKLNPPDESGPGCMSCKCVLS

Row | Structure (SMILES) | HRAS/KRAS (ratio of KD value with respect to GDP-bound HRAS wild-type protein to KD value with respect to KRAS) [1] | NRAS/KRAS (ratio of KD value with respect to GDP-bound NRAS wild-type protein to KD value with respect to KRAS) [2]
1 | CCO[C@@H]1C[C@H]2C(=O)NC3(CC(C)(C)C3)C(=O)N(C)[C@@H](CC(C)(C)C)C(=O)N(C)[C@H](C(=O)N(C)C)CC(=O)N(C)[C@@H](COC)C(=O)N[C@@H]([C@@H](C)CC)C(=O)N(C3CC3)CC(=O)N(C)[C@H]3C/C=C\CCN(C3=O)[C@@H](Cc3ccc(C(F)(F)F)cc3)C(=O)N(C)CC(=O)N[C@@H](CCc3ccc(Cl)c(Cl)c3)C(=O)N2C1 [PP2750] | A (a compound having 10 or more and less than 20 is denoted as A) | AA (a compound having 20 or more is denoted as AA)
2 | CCC[C@H]1C(=O)N[C@@H]([C@@H](C)CC)C(=O)N(C)CC(=O)N(C)[C@H]2C/C=C\CCN(C2=O)[C@@H](Cc2ccc(C)cc2)C(=O)N(C)CC(=O)N[C@@H](CCc2ccc(CC)c(Cl)c2)C(=O)N2C[C@H](OCC)C[C@H]2C(=O)NC2(CC(C)(C)C2)C(=O)N(C)[C@@H](C(CC)CC)C(=O)N(C)[C@H](C(=O)N(C)C)CC(=O)N1C [PP2779] | A (a compound having 10 or more and less than 20 is denoted as A) | A (a compound having 10 or more and less than 20 is denoted as A)
3 | CCC[C@H]1C(=O)N[C@@H]([C@@H](C)CC)C(=O)N(C)CC(=O)N(C)[C@H]2C/C=C\CCN(C2=O)[C@@H](Cc2ccc(C)cc2)C(=O)N(C)CC(=O)N[C@@H](CCc2cc(F)c(C(F)(F)F)c(F)c2)C(=O)N2C[C@H](OCC)C[C@H]2C(=O)NC2(CC(C)(C)C2)C(=O)N(C)[C@@H](CC2CC2)C(=O)N(C)[C@H](C(=O)N(C)C)CC(=O)N1C [PP2797] | A (a compound having 10 or more and less than 20 is denoted as A) | A (a compound having 10 or more and less than 20 is denoted as A)
4 | CCC[C@H]1C(=O)N[C@@H]([C@@H](C)CC)C(=O)N(C)CC(=O)N(C)[C@H]2C/C=C\CCN(C2=O)[C@@H](Cc2ccc(C)cc2)C(=O)N(C)CC(=O)N[C@@H](CCc2ccc(Cl)c(Cl)c2)C(=O)N2C[C@H](OCC)C[C@H]2C(=O)NC2(CC(C)(C)C2)C(=O)N(C)[C@@H](CC2CC2)C(=O)N(C)[C@H](C(=O)N(C)C)CC(=O)N1C [PP2799] | A (a compound having 10 or more and less than 20 is denoted as A) | A (a compound having 10 or more and less than 20 is denoted as A)
5 | CC[C@H](C)[C@@H]1NC(=O)[C@H](CC2CC2)N(C)C(=O)C[C@@H](C(=O)N(C)CC)N(C)C(=O)[C@H](C2CCCC2)N(C)C(=O)C2(CC(C)(C)C2)NC(=O)[C@@H]2C[C@@H](F)CN2C(=O)[C@H](CCc2cc(F)c(C(F)(F)F)c(F)c2)NC(=O)CN(C)C(=O)[C@H](Cc2ccc(C)cc2)N2CC/C=C\C[C@@H](C2=O)N(C)C(=O)CN(C)C1=O [PP2802] | A (a compound having 10 or more and less than 20 is denoted as A) | AA (a compound having 20 or more is denoted as AA)
6 | CCC[C@H]1C(=O)N[C@@H]([C@@H](C)CC)C(=O)N(C2CC2)CC(=O)N(C)[C@H]2C/C=C\CCN(C2=O)[C@@H](Cc2ccc(C)cc2)C(=O)N(C)CC(=O)N[C@@H](CCc2ccc(Cl)c(Cl)c2)C(=O)N2C[C@H](OCC)C[C@H]2C(=O)NC2(CC(C)(C)C2)C(=O)N(C)[C@@H](CC2CC2)C(=O)N(C)[C@H](C(=O)N(C)C)CC(=O)N1C [PP2805] | A (a compound having 10 or more and less than 20 is denoted as A) | A (a compound having 10 or more and less than 20 is denoted as A)
7 | CCO[C@@H]1C[C@H]2C(=O)N(C)C3(CC(C)(C)C3)C(=O)N(C)[C@@H](C(CC)CC)C(=O)N(C)[C@H](C(=O)N(C)C)CC(=O)N(C)[C@@H](COC)C(=O)N[C@@H]([C@@H](C)CC)C(=O)N(C)CC(=O)N(C)[C@H]3C/C=C\CCN(C3=O)[C@@H](Cc3ccc(C)cc3)C(=O)N(C)CC(=O)N[C@@H](CCc3ccc(Cl)c(Cl)c3)C(=O)N2C1 [PP2810] | A (a compound having 10 or more and less than 20 is denoted as A) | AA (a compound having 20 or more is denoted as AA)
8 | CCCO[C@@H]1C[C@H]2C(=O)N(C)C3(CC(C)(C)C3)C(=O)N(C)[C@@H](C(CC)CC)C(=O)N(C)[C@H](C(=O)N(C)C)CC(=O)N(C)[C@@H](COC)C(=O)N[C@@H]([C@@H](C)CC)C(=O)N(C)CC(=O)N(C)[C@H]3C/C=C\CCN(C3=O)[C@@H](Cc3ccc(C)cc3)C(=O)N(C)CC(=O)N[C@@H](CCc3ccc(Cl)c(Cl)c3)C(=O)N2C1 [PP2812] | A (a compound having 10 or more and less than 20 is denoted as A) | AA (a compound having 20 or more is denoted as AA)
9 | CCC(CC)[C@H]1C(=O)N(C)[C@H](C(=O)N(C)C)CC(=O)N(C)[C@@H](COC)C(=O)N[C@@H]([C@@H](C)CC)C(=O)N(C)CC(=O)N(C)[C@H]2C/C=C\CCN(C2=O)[C@@H](Cc2ccc(C)cc2)C(=O)N(C)CC(=O)N[C@@H](CCc2ccc(Cl)c(Cl)c2)C(=O)N2C[C@H](OC(C)C)C[C@H]2C(=O)N(C)C2(CC(C)(C)C2)C(=O)N1C [PP2814] | A (a compound having 10 or more and less than 20 is denoted as A) | AA (a compound having 20 or more is denoted as AA)
10 | CCO[C@@H]1C[C@H]2C(=O)NC3(CCC3)C(=O)N(C)[C@@H](C3CCCC3)C(=O)N(C)[C@H](C(=O)N(C)CC)CC(=O)N(C)[C@@H](CC3CCC3)C(=O)N[C@@H]([C@@H](C)CC)C(=O)N(C)CC(=O)N(C)[C@H]3C/C=C\CCN(C3=O)[C@@H](Cc3ccc(C(F)(F)F)cc3)C(=O)N(C)CC(=O)N[C@@H](CCc3ccc(Cl)c(Cl)c3)C(=O)N2C1 [PP2824] | A (a compound having 10 or more and less than 20 is denoted as A) | A (a compound having 10 or more and less than 20 is denoted as A)
11 | CCCOC[C@H]1C(=O)N[C@@H]([C@@H](C)CC)C(=O)N(C)CC(=O)N(C)[C@H]2C/C=C\CCN(C2=O)[C@@H](Cc2ccc(C(F)(F)F)cc2)C(=O)N(C)CC(=O)N[C@@H](CCc2ccc(Cl)c(Cl)c2)C(=O)N2C[C@H](OCC)C[C@H]2C(=O)NC2(CCC2)C(=O)N(C)[C@@H](C2CCCC2)C(=O)N(C)[C@H](C(=O)N(C)CCC)CC(=O)N1C [PP2830] | A (a compound having 10 or more and less than 20 is denoted as A) | A (a compound having 10 or more and less than 20 is denoted as A)
